Laboratory results from US20050130232A1, “Methods of screening for compounds that modulate hormone receptor activity” (Allergan, Inc., priority 2001, published 2005).

Legend:
[1] = molecular target: protein kinase A activity associated with endogenous RXRα (Mus musculus, UniProt P28700); details: 3T3-L1 adipocytes, 10^-7 M, vs vehicle-treated cells
Description: Kinase activity was determined in the immunoprecipitate using kemptide (LRRASLG; SEQ ID NO: 59) as a substrate. Samples 1,3: 0.1% DMSO (10 minutes).
Kinase activity in the immunoprecipitates was determined as described above using γ-ATP and synthetic peptide SEQ ID NO: 59.

[2] = tested on: protein kinase A activity associated with RXRα (Homo sapiens); test: PKA activity in S293 cells overexpressing the catalytic subunit of PKA; assay type: cell-based
Text: Sample 1: No ligand; immunoprecipitation with beads only. […] Sample 3: No ligand; immunoprecipitation with anti-FLAG antibody. […] Sample 5: No ligand; immunoprecipitation with beads only. […] Sample 7: No ligand; immunoprecipitation with anti-PKA antibody.
S293 cells (HEK293 cells stably overexpressing RXRα) were transfected with the pFC-PKA expression vector encoding the catalytic subunit of protein kinase A and with Flag-tagged PH-RXRα essentially as described above. This commercially available expression vector expresses the catalytic subunit of murine protein kinase A under control of the CMV promoter (Stratagene; San Diego, Calif.).

[3] = tested on: RXR-associated protein kinase in Flag-RXR immunocomplexes; test: In vitro kinase reaction with [γ-32P]ATP on Flag-RXR immunocomplexes from transfected HEK 293 cells; assay type: cell-based, human
Text: (§1) Total cell lysates were immunoprecipitated with anti-Flag antibody (M2). Aliquots of the immunocomplexes were used for the in vitro kinase reaction with [γ-^32P]ATP and separated on SDS-PAGE. Phosphorylated proteins were detected by autoradiography (top panel). Additional aliquots of the immunocomplexes were subjected to immunoblotting with polyclonal anti-RXR antisera (D20; bottom panel). (B) Phosphoamino acid analysis. Flag-RXR and the 160-kDa protein were phosphorylated in vitro and separated on SDS-PAGE as described above, then transferred onto PVDF membrane, detected by autoradiography, and cut out for hydrolysis with acid (6 N HCl). The phosphorylated amino acids and standards (P-Ser, P-Thr, and P-Tyr) were separated by thin-layer chromatography. Positions of the standards P-Ser, P-Thr, and P-Tyr were visualized by ninhydrin staining and are indicated by arrows. (C) In vivo metabolic labeling of transfected HEK 293 cells. […] Cells were washed with phosphate-free medium and starved for 90 minutes before incubation with [^32P]orthophosphate for another 4 hours. […] Total cell lysates were immunoprecipitated with anti-Flag antibody (M2) and subjected to separation on SDS-PAGE. Phosphorylated proteins were detected by autoradiography.
(§2) Total cell lysates were subjected to immunoprecipitation, and the in vitro kinase reaction performed as described above.
(§3) Cell lysis, immunoprecipitation with anti-Flag (M2), in vitro kinase assay, and detection of the phosphorylated proteins in the RXRα immunoprecipitated complexes were performed as described above.
(§4) Cell culture and transient transfection was performed as follows. HEK 293 cells were grown in Dulbecco's modified Eagle's medium (DMEM) supplemented with 10% fetal bovine serum (FBS), 100U of penicillin per ml and 10 μg of streptomycion per ml at 37° C. in 5% CO2. For expression of RXR protein, 100-mm dishes of cells were transfected at 50% confluence with 2 μg of plasmid DNA using Lipofectamine (Life Technologies) as specified by the manufacturer. At 32 hours post-transfection, cells were starved by incubating in DMEM medium with 2.5% charcoal-treated fetal bovine serum or 0.1-0.5% calf bovine serum overnight, and then treated with indicated agents. Cells were harvested by aspirating medium, rinsing in phosphate buffered saline (PBS), and extracting into Lysis Buffer (30 mM Tris-HCL, pH 7.4, 0.5% Nonidet P-40, 10% glycerol, 150 mM NaCl, 1 mM EDTA, 40 mM NaF, 1 mM sodium orthovanadate, and 0.5 mM phenylmethylsufonyl fluoride, and 1× protease inhibitors, (Roche Diagnostics) or 1×SDS Sample Buffer.
(§5) Immunoprecipitation was performed essentially as follows. Cells were solubilized in cold Lysis Buffer and subsequently clarified by centrifugation at 20,000 g for 10 minutes at 4° C. Immunoprecipitations were performed at 4° C. by incubating clarified cell extracts with the indicated antibodies (2 μg/ml) and protein A/G-agarose beads (1:30 dilution of a 50% suspension) on a rotating wheel for 4 hours to overnight. Agarose beads were pelleted by low speed centrifugation and washed extensively with ice-cold Lysis Buffer.
(§6) Protein kinase assays were performed as follows. Immunoprecipitated complexes were resuspended in 15 μl of Kinase Assay Buffer (30 mM Tris-HCl, pH 7.4 and 10 mM MgCl2). Kinase reactions were initiated by addition of 2.5 μl of 50 μM [γ-^32P]ATP (10 μCi) to the immune-complexes, followed by incubation at 25° C. with occasional shaking for 20 minutes, and terminated by addition of 6 μl 4×SDS Sample Buffer. After heating at 100° C. for 5 minutes, the reaction mixtures were resolved by 4-12% SDS-PAGE. Incorporation of ^32P into RXR or other proteins was determined by autoradiography.

[4] = molecular target: T1, RXR-associated protein kinase in Flag-RXR immunocomplexes (Homo sapiens, UniProt P19793); test: as above; assay type: cell-based; details: transfected HEK 293 cells treated with ligand before anti-Flag immunoprecipitation
T1 construct: expressed in transfected cells; host or cells: HEK 293
T1 sequence (P19793 1-462): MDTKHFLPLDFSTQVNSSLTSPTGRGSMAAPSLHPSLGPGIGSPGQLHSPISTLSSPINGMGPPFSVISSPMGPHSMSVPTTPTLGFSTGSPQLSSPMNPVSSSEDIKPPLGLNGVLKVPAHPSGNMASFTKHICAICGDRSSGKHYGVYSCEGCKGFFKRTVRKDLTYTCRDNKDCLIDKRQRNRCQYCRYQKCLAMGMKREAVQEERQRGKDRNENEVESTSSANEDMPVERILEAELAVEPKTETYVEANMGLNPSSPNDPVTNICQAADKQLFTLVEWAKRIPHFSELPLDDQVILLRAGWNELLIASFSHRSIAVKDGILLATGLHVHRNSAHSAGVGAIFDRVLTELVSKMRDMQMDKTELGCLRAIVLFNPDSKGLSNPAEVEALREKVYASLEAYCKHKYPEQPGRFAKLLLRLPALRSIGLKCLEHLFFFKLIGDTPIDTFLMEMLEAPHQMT
Text: as §1, §2, §3, §4, §5, §6

[5] = molecular target: association between RXRα and PKA (Homo sapiens, UniProt P19793); test: Co-immunoprecipitation of RXRα and catalytic subunit of PKA; assay type: cell-based; details: cells overexpressing PKA catalytic subunit, 10^-7 M
Description: Left panel: Cells were immunoprecipitated with anti-FLAG antibody, and the immunoprecipitates analyzed by SDS-PAGE and blotting with anti-PKA antibody. Right panel: Cells were immunoprecipitated with anti-PKA antibody, and the immunoprecipitates analyzed by SDS-PAGE and blotting with anti-FLAG antibody. […] PKA I and PKC I indicate inhibitors of PKA and PKC, respectively.
Immunoprecipitations with anti-Flag antibody were performed as described above. Immunoprecipitations with anti-PKA antibody (Transduction Laboratories; Lexington, Kentucky) were performed according to manufacturer's protocol. Western blotting with anti-PKA antibody and anti-Flag antibody also were performed according to manufacturer's protocol.

protein kinase A activity associated with endogenous RXRα, sequence (P28700 whole entry): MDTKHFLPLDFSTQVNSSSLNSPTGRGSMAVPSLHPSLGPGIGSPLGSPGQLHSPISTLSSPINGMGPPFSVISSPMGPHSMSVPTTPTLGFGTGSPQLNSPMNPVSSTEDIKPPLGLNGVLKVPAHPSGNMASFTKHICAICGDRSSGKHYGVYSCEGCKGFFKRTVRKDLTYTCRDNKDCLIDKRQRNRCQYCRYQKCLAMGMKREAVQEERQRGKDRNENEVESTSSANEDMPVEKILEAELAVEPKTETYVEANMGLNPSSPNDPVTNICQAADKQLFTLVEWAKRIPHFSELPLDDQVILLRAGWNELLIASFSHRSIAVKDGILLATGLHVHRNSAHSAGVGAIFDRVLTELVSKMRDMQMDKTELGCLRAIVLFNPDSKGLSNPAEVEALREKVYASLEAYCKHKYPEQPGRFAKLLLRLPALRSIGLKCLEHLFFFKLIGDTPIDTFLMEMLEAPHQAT

**Q.** Which “PKA activity associated with endogenous RXRα” value [1] does the source give for `CC(/C=C/[C@@H]1C[C@]1(C)c1ccc2c(c1)C(C)(C)CCC2(C)C)=C\C(=O)O` [AGN194204] here?
**A.** The value was “increased about two-fold”.

**Q.** And the “protein kinase A activity in immunoprecipitates” value ([2]; immunoprecipitation with anti-Flag antibody)?
**A.** The value was “dramatic increase”.

**Q.** And the “protein kinase A activity in immunoprecipitates” value ([2]; immunoprecipitation with anti-PKA antibody)?
**A.** Its value is “only a marginal ligand-dependent increase”.

**Q.** What about the “recruitment of kinase activity to the immunocomplex” value ([3]; AF-2 region deleted from RXRα) of the same compound?
**A.** Its value is “kinase activity was not recruited”.

**Q.** And the “recruitment of kinase activity to the immunocomplex” value ([3]; RXRα deletion mutants containing an intact E region)?
**A.** The value was “recruited kinase activity”.

**Q.** And the “phosphorylation of RXR and 160 kDa protein in Flag-RXR immunocomplexes” value [4]?
**A.** Its value is “contained a kinase phosphorylated RXR and a 160 kDa protein”.

**Q.** And the “amount of protein kinase A associated with RXRα” value [5]?
**A.** Its value is “did not increase the amount of protein kinase A associated with receptor”.
